Source: PMC5663395, “Chemical Validation of Methionyl-tRNA Synthetase as a Druggable Target in Leishmania donovani” (ACS Infectious Diseases, 2017)

How the values were obtained:
LdMetRS = LdMetRS (Leishmania donovani, UniProt A0A3Q8IBX2); assay: LdMetRS biochemical enzyme assay (BIOMOL Green)
Protocol: LdMetRS Assay Development and Kinetic Parameter Determinations
Activity of the LdMetRS enzyme was determined by monitoring levels of pyrophosphate released during the first step of the enzymatic reaction. The pyrophosphate formed was converted to two inorganic phosphate molecules using a pyrophosphatase enzyme and levels of the resulting phosphate molecules measured using the BIOMOL® Green reagent (Enzo Life Sciences) 2.
Following optimization of the assay buffer and determination of the enzyme linearity, 384-well plate based assays were carried out at room temperature in a 50 μl reaction volume containing 30 mM Tris, pH 8.0, 140 mM NaCl, 30 mM KCl, 40 mM MgCl2, 0.01% (v/v) Brij-35, 1 mM DTT, 1 U/ml pyrophosphatase, 50 nM recombinant LdMetRS, and varying concentrations of substrates. Michaelis constants for the ATP and methionine substrates were determined in an end point assay using the above buffer and enzyme conditions. Data were fitted to the modified Michaelis-Menten equations […]
Equation 1 (Hill equation): […]
Equation 2 (High substrate inhibition Michaelis-Menten equation): […]
LdMetRS Inhibitor Studies
All test compounds were solubilized in 100% DMSO to a concentration of 10 mM. To generate IC50 data for the compounds, assay ready plates containing 10-point inhibitor curves (half-log serial dilutions) were prepared using an Echo® 550 (Labcyte).
Following preparation of the inhibitor curves, assays were carried out at room temperature in clear, flat bottom, polystyrene, 384-well plates (Greiner). Each assay was performed in a 50 μl reaction volume containing 30 mM Tris; pH 8.0, 140 mM NaCl, 30 mM KCl, 40 mM MgCl2, 0.01% (v/v) Brij-35, 1 mM DTT, 1 U/ml pyrophosphatase, 50 nM recombinant LdMetRS, 50 µM methionine and 100 µM […]
Assays were performed by adding 25 μl buffer with enzyme to assay plates (with buffer only added to ‘no enzyme’ control wells) before the reaction was initiated with the addition of a 25 μl mix containing methionine, ATP and pyrophosphatase to all wells. Following a 120 min reaction at room temperature the assay was stopped with the addition of 50 μl BIOMOL® Green. The BIOMOL® Green signal was allowed to develop for 30 min before the absorbance of each well was read at 650 nm using an EnVision multilabel plate reader (PerkinElmer Life Sciences). All liquid dispensing steps were carried out using a Thermo Scientific WellMate dispenser (Matrix).
ActivityBase from IDBS (version 8.0.5.4) was used for data processing and analysis. All IC50 curve fitting was undertaken using ActivityBase XE (version 7.7.1) from IDBS. A four-parameter logistic dose-response curve was utilized with prefit used for all four parameters.
For DDD806905 Kiapp determinations, data fitting to the Morrison equation (equation 3) was carried out using GraFit v6.0 (Erithacus Software). It should be noted that data for fitting to the Morrison equation was normalised to a ‘100 µM DDD806905’ control rather than a ‘no enzyme’ control as […]
Equation 3 (Morrison equation): […]
vi = K1 −−([ ] [ ]ET+IT+Ki)−([ ] [ ]ET+IT+i)[ ] [ ]TIE4T
LdMetRS Mode of Inhibition Studies
To establish the mode of inhibition of DDD806905, data sets (generated using the BIOMOL® Green assay platform previously described) were collected by varying both the inhibitor and substrate concentrations. Using GraFit v6.0 (Erithacus Software) each data set was individually fitted to the Michaelis-Menten equation or the modified high substrate inhibition Michaelis-Menten equation described above (equation 2), and the resulting Lineweaver-Burk plots were examined for diagnostic […]
Data sets were then globally fitted to the appropriate model (with equations 4 and 5 used for […]
If more than one model appeared possible, then data were fitted to both and examined for significance using the F-test function in GraFit.

[1] = Mouse pharmacokinetics integrated in efficacy study (blood levels); settings: female, BALB/c, whole blood, po, 50 mg/kg; for AUC(0-t): AUC(0-8h); for AUC(0-t) / Cmax: infected mice, 50 mg/kg oral; for Cmax: Cmax in blood

LdMetRS, sequence (A0A3Q8IBX2 entry or part of it): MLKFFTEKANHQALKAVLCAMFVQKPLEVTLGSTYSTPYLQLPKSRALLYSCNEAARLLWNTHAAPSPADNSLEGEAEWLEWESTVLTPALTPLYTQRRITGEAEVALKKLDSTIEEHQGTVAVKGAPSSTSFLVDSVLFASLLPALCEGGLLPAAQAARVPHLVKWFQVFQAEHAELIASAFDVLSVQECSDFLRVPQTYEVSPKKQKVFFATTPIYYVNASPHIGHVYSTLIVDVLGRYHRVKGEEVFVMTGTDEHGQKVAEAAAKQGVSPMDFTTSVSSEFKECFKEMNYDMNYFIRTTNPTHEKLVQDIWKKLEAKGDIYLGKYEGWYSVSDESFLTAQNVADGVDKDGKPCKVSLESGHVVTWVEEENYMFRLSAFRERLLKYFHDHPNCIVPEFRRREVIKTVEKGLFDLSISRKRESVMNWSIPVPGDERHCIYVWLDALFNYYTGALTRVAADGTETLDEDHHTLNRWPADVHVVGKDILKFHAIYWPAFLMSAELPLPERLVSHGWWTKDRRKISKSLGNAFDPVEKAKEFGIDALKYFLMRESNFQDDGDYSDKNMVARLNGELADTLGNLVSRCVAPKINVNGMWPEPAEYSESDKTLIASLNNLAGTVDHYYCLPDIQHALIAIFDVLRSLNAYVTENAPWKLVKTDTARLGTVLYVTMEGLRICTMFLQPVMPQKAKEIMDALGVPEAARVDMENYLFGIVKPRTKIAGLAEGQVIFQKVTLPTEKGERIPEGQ

Cl.Cl.O=c1nc(NCCCNCc2cc3c(Cl)cc(Cl)cc3[nH]2)[nH]c2ccccc12 [DDD806905, 2-((3-(((4,6-dichloro-1H-indol-2-yl)methyl)amino)propyl)amino)quinazolin-4(1H)-one dihydrochloride]
mode of inhibition with respect to ATP (LdMetRS): mixed inhibition
mode of inhibition with respect to methionine (LdMetRS): competitive inhibition
Ki (LdMetRS; Ki app (Morrison equation), active enzyme concentration 39 nM as constant): 41 nM
Ki (LdMetRS; Ki, competitive inhibition with respect to methionine, global competitive inhibition model, Ki ± SE): 18 nM
Ki (LdMetRS; Ki, mixed inhibition with respect to ATP, mixed inhibition model, Ki ± SE): 21 nM
IC50 (LdMetRS; LdMetRS IC50 (μM), Table 1): 0.09 µM
IC50 (LdMetRS; LdMetRS IC50, 50 nM LdMetRS, 50 μM methionine, 100 μM ATP): 0.094 µM
IC50 (LdMetRS; LdMetRS IC50, Fig S5A: methionine 50 µM, ATP 500 µM): 0.11 µM
IC50 (LdMetRS; LdMetRS IC50, Fig S5A: methionine 500 µM, ATP 500 µM): 0.433 µM
IC50 (LdMetRS; LdMetRS IC50, Fig S5B: ATP 50 µM, methionine 500 µM): 0.098 µM
IC50 (LdMetRS; LdMetRS IC50, Fig S5B: ATP 500 µM, methionine 500 µM): 0.38 µM
IC50 (LdMetRS; LdMetRS IC50, Fig S5C: methionine and ATP both 50 µM): 0.037 µM
IC50 (LdMetRS; LdMetRS IC50, Fig S5C: methionine and ATP both 500 µM): 0.433 µM
Ki′ (ATP mode of inhibition study) (LdMetRS; mixed inhibition model, ATP as variable substrate): 227 ± 23 nM
Tmax [1]: 2 h
AUC(0-t) ([1]; day 1): 15800 ng·h/mL
AUC(0-t) ([1]; day 10): 23300 ng·h/mL
Cmax ([1]; first dose day 1): 2600 ng/mL
Cmax ([1]; first dose day 10): 3200 ng/mL
